Type in all cases: cell-based
For series [1], the system named is liver cancer cells (hepatocellular carcinoma cell line). As to the kind of experiment: XTT assay, growth of liver cancer cells. The following applies: high-dose leptin (100 ng), 24 hours. How it is done:
Please refer to FIG. 2, which is a view showing leptin's effect on growth of liver cancer cells. As shown in the figure, for acquiring effect of leptin on liver cancer cells, the preferred embodiment uses leptin having different doses, where the high-dose leptin has 100 nano-grams (ng) and the low-dose leptin has 10 ng. The 10 ng leptin is conformed to the physiological concentration of normal human body for observing effect of leptin on the cells. In the other hand, the 100 ng leptin is used to show whether a higher levels of leptin obtains a higher effect on the cells.
Please refer to FIG. 3, which is a view showing MPA's effect on growth of liver cancer cells. As shown in the figure, the preferred embodiment applies MPA having different doses to liver cancer cells.
Please refer to FIG. 4, which is a view showing effect of MPA+leptin on growth of liver cancer cells. As shown in the figure, the preferred embodiment applies MPA combined with leptin to liver cancer cells, where MPA has different doses and leptin has different doses.
Please refer to FIG. 9, which is a view showing reduced effect of MPA+leptin by suppressing leptin receptor expression. As shown in the figure, a 20 nano-moles (nM) of leptin receptor, siRNA, is transferred to cells to be cultured a day and is cultured in a serum-free medium for the next day. Then, the cells are processed with MPA+leptin for 24 hours to be analyzed through XTT assay. […] Thus, it is confirmed that leptin enhances MPA's suppression on the cells through the leptin receptor.
Please refer to FIG. 10A and FIG. 10B, which are views showing apoptosis of cells on increasing expression of leptin receptor and expression of progesterone receptor respectively. As shown in the figures, the preferred embodiment makes ob-Rb plasmid transfected to cells to be cultured a day and is cultured in a serum-free medium for the next day. Then, the cells are processed with MPA+leptin for 24 hours to be analyzed through XTT assay. […] Besides, the long-form Ob-R enhances expression of the progesterone receptor. Again, the preferred embodiment makes PgR plasmid transfected to cells to be cultured a day and is cultured in a serum-free medium for the next day. Then, the cells are processed with MPA+leptin for 24 hours to be analyzed through XTT assay.
Please refer to FIG. 15A to FIG. 16B, which are views showing cells containing very much leptin within; suppressed growth of the cells by using MPA; and STAT3- and MAPK-signal paths of the cells after MPA is applied. As shown in the figures, while leptin is added from outside in state 13 to suppress liver cancer cells with MPA+leptin, the preferred embodiment here transfers expression plasmid of leptin (pcLeptin) to liver cancer cells to be cultured for a day; and a serum-free medium is used for the next day. Then, after the cells are processed with 10^−4M MPA for 24 hours, cell growth is analyzed through XTT assay. In FIG. 15A, leptin gene is transferred to cells for a short time for obtaining very much leptin within the cells by themselves. After applying MPA to the cells for 24 hours, it is confirmed that MPA's suppression on liver cancer cells is enhanced by a lot of leptin self-generated within the cells. Moreover, after obtaining a lot of leptin, medium is collected for immunoprecipitation and further western blotting. […] Then, after the cells are processed with 10^−4 M MPA for 24 hours, JAK/STAT-related proteins are analyzed through western blotting.

The subject of series [2] is epithelial cell line of normal liver (THLE-3). In words: XTT assay, survival of normal liver epithelial cell line. The following applies: THLE-3, FIG. 17A. How it is done:
(§1) Please refer to FIG. 17A to FIG. 18B, which are views showing epithelial cell line of normal liver treated with MPA+leptin for 24 hours and 48 hours respectively; and views showing STAT3- and MAPK-related signal paths after treating cell line of normal liver with MPA+leptin. As shown in the figures, after epithelial cell line of normal liver (THLE-3) is applied with MPA+leptin for […], MPA+leptin's effect on cell growth (i.e. survival rate) is analyzed through XTT assay. […] Besides, in FIG. 18A and FIG. 18B, protein expressions for STAT- and MAPK-related signal paths are analyzed.
In general terms: Formazan colour is commonly taken as a measure of viable cells.

Series [3] has as its system STAT- and MAPK-related signal paths. In words: Protein expression of STAT- and MAPK-related signal paths in normal liver cell line. How it is done:
as §1

Another series deals with JAK/STAT path. As to the kind of experiment: Western blotting of JAK/STAT path proteins in liver cancer cells. The following applies: 10^-6 M U0126 for 4 hours, then MPA+leptin for 3 hours. As for the experimental part:
Please refer to FIG. 11, which is a view showing expression of JAK/STAT path after applied with a drug. As shown in the figure, the preferred embodiment analyzes related proteins of liver cancer cells through western blotting after applied with MPA+leptin for 24 hours.
(§2) Please refer to FIG. 13A and FIG. 13A, which are views showing expressions of proteins of JAK/STAT path and proteins of MAPK path after applied with a drug for a short time. As shown in the figures, the preferred embodiment processes liver cancer cells with high-dose leptin, high-dose MPA and high-dose leptin combined with high-dose MPA for 30 minutes. Then, related JAK/STAT proteins are collected for analyzing their expressions through western blotting.
Please refer to FIG. 14, which is a view showing reduced p-STAT3 degradation by suppressing the ERK1/2 activation and the PIAS3 expression. […] The preferred embodiment uses a 10^−6M p-ERK1/2 inhibitor (U0126) for 4 hours before a drug is applied; then, liver cancer cells are applied with the drug of MPA+leptin for 3 hours to collect cellular proteins for analyzing expression of related proteins through western blotting. […] As a conclusion, MPA activates ERK1/2 to indirectly induce PIAS3 expression for suppressing p-STAT3 (Tyr705) for cell apoptosis, where leptin enhances activation of ERK1/2 with MPA for increasing cell apoptosis.
(§3) Please refer to FIG. 15A to FIG. 16B, which are views showing cells containing very much leptin within; suppressed growth of the cells by using MPA; and STAT3- and MAPK-signal paths of the cells after MPA is applied. […] Then, after the cells are processed with 10^−4M MPA for 24 hours, cell growth is analyzed through XTT assay. […] Then, after the cells are processed with 10^−4 M MPA for 24 hours, JAK/STAT-related proteins are analyzed through western blotting.

The next series has as its system MAPK path. In words: Western blotting of MAPK path proteins in liver cancer cells. The following applies: 10^-6 M U0126 for 4 hours, then MPA+leptin for 3 hours.
Text: Please refer to FIG. 12, which is a view showing expression of MAPK path after applied with a drug. As shown in the figure, after proteins for the JAK2/STAT3 path are suppressed, the preferred embodiment analyzes expression of the proteins through western blotting.
as §2
Please refer to FIG. 14, which is a view showing reduced p-STAT3 degradation by suppressing the ERK1/2 activation and the PIAS3 expression. […]
as §3

Consider two compounds from US20110098219A1, “System for Curing Hepatic Cancer with Leptin” (KAOHSIUNG MEDICAL UNIVERSITY, priority 2009, published 2011).

On to “leptin: hormone of single-chain protein; adipokine generated by adipocyte”, for which the “effect on growth of liver cancer cells” value in series [1] was “no obvious effect”. The “effect on survival rate of, and poisoning of, normal liver epithelial cells” value in series [2] was “no obvious effect”. For the same compound, the “effect on STAT- and MAPK-related signal proteins” value in series [3] is listed as “no obvious effect”.

`N#CC(=C(/N)Sc1ccccc1N)/C(C#N)=C(\N)Sc1ccccc1N` [U0126]: the “expression of p-STAT3 (Tyr705)” value with JAK/STAT path is reported as “suppressed”. In the series with MAPK path, the PIAS3 entry is reported as “not induced” and the “phosphorylation of ERK1/2” value is “suppressed”.
